Measurements taken from patent publication US20210022305A1, “A HUMULUS PLANT VARIANT AND EXTRACTS THEREOF” (BOMI LLC, priority 2018, published 2021).

Tested on: liver cancer tumors (Standard Risk Hepatoblastoma)
Assay: Liver cancer study: cisplatin alone vs cisplatin + ImmunAG, tumor size
Assay type: in vivo, human
From the text: Patient Characteristics. There were 99 men and 18 women in the trial. The average age was 53, with a minimum age of 31 and a maximum age of 78. Eighty-six patients (73.5%) were preoperative TACE negative, and 31 patients (26.49%) were preoperative TACE positive. Seventeen patient (14.52%) were HBsAg negative and 100 patients (85.47%) were HBsAg positive. One hundred six patients […] were Anti-HCV negative and 11 patients […] were Anti-HCV positive. Eighteen patients […] were negative for cirrhosis and 99 patients (83.9%) were positive for cirrhosis. Preoperative alpha-fetoprotein (μg/L) was an average of 18.3 with a minimum value of 1.7 and a maximum value of 1089. Cumulative tumor size was an average of 4.89 cm with a minimum of 2.37 cm and a maximum value of 19.62 cm. Fifty-three people had 2 tumors in the liver, 52 people has 3 liver tumors and 12 people had 4 tumors. The average tumor number is […]. There were 7 cases (5.98%) of high Necrosis differentiation, 106 cases of medium (90.59%) Necrosis differentiation, and 4 cases (3.41%) of low Necrosis differentiation. […] The rest, 99 patient (84.6%) had liver capsule invasion in some form.
All these patients were suffering from Standard Risk (SR) Hepatoblastoma- and not Hepatocellular carcinoma or Cholangiocarcinoma. Of these patients, 57 of the men, and 7 of the women, had surgical resectioning of some degree. However at this point of treatment resectioning was not considered a viable option.
There were 54 men and 10 women in the Cisplatin alone treatment group. There were 45 men and 8 women in the Cisplatin+ImmunAG group. The Cisplatin alone treatment group received a dosage of 50-70 mg/m^2, every four weeks for a duration of the study. The Cisplatin+ImmunAG group received the same dosage of Cisplatin as noted above in combination with a 80 mg-600 mg/day dose of ImmunAG (composition comprising CBD, humulene, and β-caryophyllene). The exact dose of ImmunAG was determined based on patient's sex and height, and was administered in three doses over the course of the day.

In the case of `N.N.[Cl][Pt][Cl]` [Cisplatin], the “Final tumor sizes, Mean” value (after treatment, cisplatin 50-70 mg/m^2 every four weeks, ImmunAG 80 mg-600 mg/day) is reported as 5.659, the “Initial tumor sizes, Mean” value (before treatment, liver tumors of patients) is reported as 4.851 and the “Change of mean tumors” value (final vs initial) is reported as 17%. The “Mean tumors relative to initial (from 1)” value (final vs initial = 1) was 1.17.
